# Where two headings read alike, the source gives them in different places.
# Columns and labels:
# Format in all cases: biochemical
# PI3Kγ = target: T1, PI3Kγ (Homo sapiens, UniProt P48736); assay: TR-FRET enzymatic activity assay, PI3Kγ; conditions: read-out: PI3Kγ IC50
# T1 construct: made in house
# In short: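 Compounds were profiled per isoform in a biochemical kinase reaction, with activity detected by time-resolved fluorescence resonance energy transfer.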
# PI3Kδ = target: T2, PI3Kδ (Homo sapiens, UniProt O00329); assay: TR-FRET enzymatic activity assay, PI3Kδ
# T2 construct: made in house
# PI3Kβ = target: T3, PI3Kβ (Homo sapiens, UniProt P42338); assay: TR-FRET enzymatic activity assay, PI3Kβ
# T3 construct: made in house
# [1] = Table 2, TR-FRET, 2x Km ATP, 30 minutes at 25° C.
# T3 sequence (P42338 whole entry): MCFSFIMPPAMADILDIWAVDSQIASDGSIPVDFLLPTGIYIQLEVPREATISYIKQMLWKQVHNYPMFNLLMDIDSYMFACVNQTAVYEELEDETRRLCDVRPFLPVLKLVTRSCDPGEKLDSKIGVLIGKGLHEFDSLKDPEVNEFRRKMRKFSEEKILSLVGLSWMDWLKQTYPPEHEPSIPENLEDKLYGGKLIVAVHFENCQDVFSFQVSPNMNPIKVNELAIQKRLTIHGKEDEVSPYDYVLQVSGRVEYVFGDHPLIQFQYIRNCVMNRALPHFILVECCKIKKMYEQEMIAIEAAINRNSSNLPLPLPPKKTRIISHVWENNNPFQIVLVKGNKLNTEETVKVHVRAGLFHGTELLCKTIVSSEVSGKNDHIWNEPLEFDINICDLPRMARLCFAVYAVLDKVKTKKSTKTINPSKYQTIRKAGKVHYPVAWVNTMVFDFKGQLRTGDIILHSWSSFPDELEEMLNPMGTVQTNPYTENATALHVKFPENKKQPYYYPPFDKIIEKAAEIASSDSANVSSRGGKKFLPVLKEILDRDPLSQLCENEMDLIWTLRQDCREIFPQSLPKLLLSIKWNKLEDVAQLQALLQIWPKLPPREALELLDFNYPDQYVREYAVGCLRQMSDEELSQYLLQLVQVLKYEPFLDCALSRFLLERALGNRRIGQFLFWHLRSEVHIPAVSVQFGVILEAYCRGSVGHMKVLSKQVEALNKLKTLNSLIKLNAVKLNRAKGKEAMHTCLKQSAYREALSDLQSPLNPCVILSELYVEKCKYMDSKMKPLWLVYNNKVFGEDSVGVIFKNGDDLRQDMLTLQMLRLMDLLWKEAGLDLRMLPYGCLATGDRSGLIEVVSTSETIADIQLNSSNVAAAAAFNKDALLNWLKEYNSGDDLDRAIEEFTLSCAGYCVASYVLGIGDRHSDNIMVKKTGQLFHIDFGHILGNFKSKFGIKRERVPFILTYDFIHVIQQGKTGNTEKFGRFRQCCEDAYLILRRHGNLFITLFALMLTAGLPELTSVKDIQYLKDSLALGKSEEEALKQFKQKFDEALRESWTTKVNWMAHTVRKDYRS
# T3 sequence (P27986 whole entry partner): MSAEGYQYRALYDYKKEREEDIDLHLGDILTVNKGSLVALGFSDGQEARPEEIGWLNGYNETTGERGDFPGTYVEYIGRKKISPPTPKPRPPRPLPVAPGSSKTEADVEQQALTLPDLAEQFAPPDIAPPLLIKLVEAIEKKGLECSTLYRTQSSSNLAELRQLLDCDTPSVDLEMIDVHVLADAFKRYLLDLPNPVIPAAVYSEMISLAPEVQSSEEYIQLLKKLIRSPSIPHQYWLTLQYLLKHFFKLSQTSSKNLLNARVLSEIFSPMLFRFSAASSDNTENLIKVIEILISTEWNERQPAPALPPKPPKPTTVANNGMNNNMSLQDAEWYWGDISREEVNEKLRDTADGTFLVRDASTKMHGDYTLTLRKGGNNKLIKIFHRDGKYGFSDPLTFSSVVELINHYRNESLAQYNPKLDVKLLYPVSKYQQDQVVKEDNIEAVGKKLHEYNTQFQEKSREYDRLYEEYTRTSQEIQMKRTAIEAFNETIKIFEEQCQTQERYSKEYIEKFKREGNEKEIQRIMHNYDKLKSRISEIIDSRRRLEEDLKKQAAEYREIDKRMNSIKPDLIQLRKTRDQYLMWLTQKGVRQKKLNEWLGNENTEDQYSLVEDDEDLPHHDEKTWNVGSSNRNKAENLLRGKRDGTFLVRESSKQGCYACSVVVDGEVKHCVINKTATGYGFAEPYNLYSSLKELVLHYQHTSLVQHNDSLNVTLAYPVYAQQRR
# T1 sequence (P48736 whole entry): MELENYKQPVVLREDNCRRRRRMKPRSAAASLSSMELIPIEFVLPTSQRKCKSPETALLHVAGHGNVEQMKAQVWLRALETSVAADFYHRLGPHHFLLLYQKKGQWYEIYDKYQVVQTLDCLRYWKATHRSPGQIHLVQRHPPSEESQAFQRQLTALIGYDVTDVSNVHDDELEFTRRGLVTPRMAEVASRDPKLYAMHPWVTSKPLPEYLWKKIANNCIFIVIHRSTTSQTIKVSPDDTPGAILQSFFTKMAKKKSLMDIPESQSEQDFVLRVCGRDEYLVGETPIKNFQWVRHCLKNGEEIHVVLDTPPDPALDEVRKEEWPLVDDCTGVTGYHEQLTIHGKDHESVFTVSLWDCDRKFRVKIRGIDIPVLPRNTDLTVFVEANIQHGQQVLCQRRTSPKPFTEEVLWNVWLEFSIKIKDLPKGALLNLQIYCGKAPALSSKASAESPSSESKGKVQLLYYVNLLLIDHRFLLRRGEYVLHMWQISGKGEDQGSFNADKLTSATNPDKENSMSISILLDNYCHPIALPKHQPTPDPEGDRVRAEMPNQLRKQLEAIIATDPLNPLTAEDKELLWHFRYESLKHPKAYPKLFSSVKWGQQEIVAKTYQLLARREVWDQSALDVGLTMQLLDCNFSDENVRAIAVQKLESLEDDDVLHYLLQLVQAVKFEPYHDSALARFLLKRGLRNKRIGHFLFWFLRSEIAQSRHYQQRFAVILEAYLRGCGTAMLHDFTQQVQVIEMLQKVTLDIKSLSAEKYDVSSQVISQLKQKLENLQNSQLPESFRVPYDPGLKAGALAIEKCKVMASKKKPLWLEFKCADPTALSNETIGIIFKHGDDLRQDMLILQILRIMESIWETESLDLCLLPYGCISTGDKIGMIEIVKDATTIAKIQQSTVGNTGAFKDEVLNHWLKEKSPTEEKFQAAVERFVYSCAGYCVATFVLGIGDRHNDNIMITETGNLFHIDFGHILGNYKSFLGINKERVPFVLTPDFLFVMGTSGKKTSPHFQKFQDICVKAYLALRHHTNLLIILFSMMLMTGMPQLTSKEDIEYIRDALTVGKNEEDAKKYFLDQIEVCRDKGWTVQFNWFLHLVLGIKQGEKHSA
# T2 sequence (O00329 whole entry): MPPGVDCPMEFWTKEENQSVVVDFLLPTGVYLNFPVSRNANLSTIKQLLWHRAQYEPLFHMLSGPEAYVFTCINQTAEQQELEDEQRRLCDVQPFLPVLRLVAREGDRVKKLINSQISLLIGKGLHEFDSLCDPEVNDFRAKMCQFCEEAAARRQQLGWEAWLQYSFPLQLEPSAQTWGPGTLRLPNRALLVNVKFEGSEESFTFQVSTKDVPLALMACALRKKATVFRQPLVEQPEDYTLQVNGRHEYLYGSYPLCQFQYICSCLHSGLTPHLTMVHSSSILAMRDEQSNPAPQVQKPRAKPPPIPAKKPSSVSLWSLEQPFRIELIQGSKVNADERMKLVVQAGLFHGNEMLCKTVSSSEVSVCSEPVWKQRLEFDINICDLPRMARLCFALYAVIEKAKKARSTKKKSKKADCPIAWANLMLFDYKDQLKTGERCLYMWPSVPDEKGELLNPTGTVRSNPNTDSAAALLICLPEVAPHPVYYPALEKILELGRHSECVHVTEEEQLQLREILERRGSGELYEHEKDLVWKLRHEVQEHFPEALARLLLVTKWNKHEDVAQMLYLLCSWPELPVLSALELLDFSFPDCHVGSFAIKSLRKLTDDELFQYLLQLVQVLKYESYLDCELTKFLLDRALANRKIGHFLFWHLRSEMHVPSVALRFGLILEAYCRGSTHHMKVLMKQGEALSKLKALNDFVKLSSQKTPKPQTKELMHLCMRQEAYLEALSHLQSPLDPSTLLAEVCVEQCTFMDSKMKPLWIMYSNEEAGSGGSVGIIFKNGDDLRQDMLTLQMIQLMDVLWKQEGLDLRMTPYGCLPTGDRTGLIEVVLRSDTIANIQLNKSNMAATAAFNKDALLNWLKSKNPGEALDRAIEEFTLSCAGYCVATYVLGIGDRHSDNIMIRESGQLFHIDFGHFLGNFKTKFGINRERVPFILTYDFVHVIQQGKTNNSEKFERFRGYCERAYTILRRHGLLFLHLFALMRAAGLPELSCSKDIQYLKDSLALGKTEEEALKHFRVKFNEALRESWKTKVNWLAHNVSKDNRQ
# T2 sequence (P27986 whole entry partner): as the sequence (P27986 whole entry partner) above
SMILES,IC50 (PI3Kγ; [1]) [nM],IC50 (PI3Kδ; [1]) [nM],IC50 (PI3Kβ; [1]) [nM],"IC50 (PI3Kγ; Table 2a, same assay) [nM]","IC50 (PI3Kδ; Table 2a, same assay) [nM]","IC50 (PI3Kβ; Table 2a, same assay) [nM]",IC50 (PI3Kγ) [nM]
"CC[C@H](Nc1nc(N)nc(N)c1C#N)c1nc2cccc(Cl)c2c(=O)n1-c1cc(CCCOC)[nH]n1 [Compound 49, (S)-2,4-diamino-6-((1-(5-chloro-3-(5-(3-methoxypropyl)-1H-pyrazol-3-yl)-4-oxo-3,4-dihydroquinazolin-2-yl)propyl)amino)pyrimidine-5-carbonitrile]",3500,9,150,–,–,–,–
"N#Cc1c(N)nc(N)nc1N[C@H](c1nc2cccc(C(F)F)c2c(=O)n1-c1cc[nH]n1)C1CCC1 [Compound 131, (S)-2,4-diamino-6-((cyclobutyl(5-(difluoromethyl)-4-oxo-3-(1H-pyrazol-3-yl)-3,4-dihydroquinazolin-2-yl)methyl)amino)pyrimidine-5-carbonitrile]",–,–,–,2000,4,2,–
"Cc1n[nH]cc1-n1c([C@@H](Nc2nc(N)nc(N)c2C#N)C2CC2)nc2c(Cl)cc(F)cc2c1=O [Compound 220, (S)-2,4-diamino-6-(((8-chloro-6-fluoro-3-(3-methyl-1H-pyrazol-4-yl)-4-oxo-3,4-dihydroquinazolin-2-yl)(cyclopropyl)methyl)amino)pyrimidine-5-carbonitrile]",–,–,–,2200,7,42,–
"N#Cc1c(N)nc(N)nc1N[C@H](c1nc2cccc(Cl)c2c(=O)n1-c1cn[nH]c1)C1CC1 [Compound 17, (S)-2,4-diamino-6-(((5-chloro-4-oxo-3-(1H-pyrazol-4-yl)-3,4-dihydroquinazolin-2-yl)(cyclopropyl)methyl)amino)pyrimidine-5-carbonitrile]",67,0.6,2,–,–,–,–
"N#Cc1c(N)nc(N)nc1N[C@H](c1nc2c(Cl)cc(F)cc2c(=O)n1-c1cc[nH]n1)C1CCC1 [Compound 130, (S)-2,4-diamino-6-(((8-chloro-6-fluoro-4-oxo-3-(1H-pyrazol-3-yl)-3,4-dihydroquinazolin-2-yl)(cyclobutyl)methyl)amino)pyrimidine-5-carbonitrile]",–,–,–,7800,4,4,–
"Nc1nc(N)c(Cl)c(N[C@H](c2nc3cccc(Cl)c3c(=O)n2-c2cc(Cl)[nH]n2)C2CC2)n1 [Compound 14, (S)-5-chloro-3-(5-chloro-1H-pyrazol-3-yl)-2-(cyclopropyl((2,6-diamino-5-chloropyrimidin-4-yl)amino)methyl)quinazolin-4(3H)-one]",7600,51,350,–,–,–,–
"Nc1nc(N)c(Cl)c(N[C@H](c2nc3c(C(F)(F)F)cccc3c(=O)n2-c2cc[nH]n2)C2CC2)n1 [Compound 134, (S)-2-(cyclopropyl((2,6-diamino-5-chloropyrimidin-4-yl)amino)methyl)-3-(1H-pyrazol-3-yl)-8-(trifluoromethyl)quinazolin-4(3H)-one]",–,–,–,9300,24,37,–
"C[C@H](Nc1nc(N)nc(N)c1Cl)c1nc2cccc(Cl)c2c(=O)n1-c1cc(F)[nH]n1 [Compound 155, (S)-5-chloro-2-(1-((2,6-diamino-5-chloropyrimidin-4-yl)amino)ethyl)-3-(5-fluoro-1H-pyrazol-3-yl)quinazolin-4(3H)-one]",–,–,–,500,10,43,–
"O=c1c2c(Cl)ccc(Cl)c2nc([C@@H](Nc2ncnc3scnc23)C2CC2)n1-c1cc[nH]n1 [Compound 37, (S)-5,8-dichloro-2-(cyclopropyl(thiazolo[5,4-d]pyrimidin-7-ylamino)methyl)-3-(1H-pyrazol-3-yl)quinazolin-4(3H)-one]",5100,0.6,1,–,–,–,–
"C[C@H](Nc1nc(N)nc(N)c1C#N)c1nc2c(C#N)cc(F)cc2c(=O)n1-c1cc[nH]n1 [Compound 272, (S)-2-(1-((2,6-diamino-5-cyanopyrimidin-4-yl)amino)ethyl)-6-fluoro-4-oxo-3-(1H-pyrazol-3-yl)-3,4-dihydroquinazoline-8-carbonitrile]",–,–,–,2700,0.9,1,–
"CCC[C@H](Nc1nc(N)nc(N)c1C#N)c1nc2ccc(F)c(Cl)c2c(=O)n1-c1cc[nH]n1 [Compound 268, (S)-2,4-diamino-6-((1-(5-chloro-6-fluoro-4-oxo-3-(1H-pyrazol-3-yl)-3,4-dihydroquinazolin-2-yl)butyl)amino)pyrimidine-5-carbonitrile]",–,–,–,900,2,5,–
"C[C@H](Nc1ncnc(N)c1C#N)c1nc2cccc(Cl)c2c(=O)n1-c1cc(C2CC2)[nH]n1 [Compound 5, (S)-4-amino-6-((1-(5-chloro-3-(5-cyclopropyl-1H-pyrazol-3-yl)-4-oxo-3,4-dihydroquinazolin-2-yl)ethyl)amino)pyrimidine-5-carbonitrile]",–,28,340,–,–,–,> 10000
"C[C@H](Nc1nc(N)nc(N)c1C#N)c1nc2ccccc2c(=O)n1-c1cc[nH]n1 [Compound 274, (S)-2,4-diamino-6-((1-(4-oxo-3-(1H-pyrazol-3-yl)-3,4-dihydroquinazolin-2-yl)ethyl)amino)pyrimidine-5-carbonitrile]",–,–,–,760,3,2,–
"CC[C@H](Nc1ncnn2ccnc12)c1nc2c(Cl)ccc(Cl)c2c(=O)n1-c1cn[nH]c1 [Compound 40, (S)-5,8-dichloro-2-(1-(imidazo[2,1-f][1,2,4]triazin-4-ylamino)propyl)-3-(1H-pyrazol-4-yl)quinazolin-4(3H)-one]",8700,38,280,–,–,–,–
"CCC[C@H](Nc1nc(N)nc(N)c1Cl)c1nc2c(Cl)ccc(Cl)c2c(=O)n1-c1cc[nH]n1 [Compound 255, (S)-5,8-dichloro-2-(1-((2,6-diamino-5-chloropyrimidin-4-yl)amino)butyl)-3-(1H-pyrazol-3-yl)quinazolin-4(3H)-one]",–,–,–,> 10000,30,150,–
"C[C@H](Nc1nc(N)nc(N)c1Cl)c1nc2c(Cl)ccc(F)c2c(=O)n1-c1cc[nH]n1 [Compound 147, (S)-8-chloro-2-(1-((2,6-diamino-5-chloropyrimidin-4-yl)amino)ethyl)-5-fluoro-3-(1H-pyrazol-3-yl)quinazolin-4(3H)-one]",–,–,–,> 10000,15,14,–
"C[C@H](Nc1ncnc2ccoc12)c1nc2cccc(Cl)c2c(=O)n1-c1cc[nH]n1 [Compound 61, (S)-5-chloro-2-(1-(furo[3,2-d]pyrimidin-4-ylamino)ethyl)-3-(1H-pyrazol-3-yl)quinazolin-4(3H)-one]",8100,3,20,–,–,–,–
"C[C@@H](Nc1nc(N)nc(N)c1C#N)c1nc2cccc(C(F)F)c2c(=O)n1-c1cc[nH]n1 [Compound 182, (R)-2,4-diamino-6-((1-(5-(difluoromethyl)-4-oxo-3-(1H-pyrazol-3-yl)-3,4-dihydroquinazolin-2-yl)ethyl)amino)pyrimidine-5-carbonitrile]",–,–,–,7300,8,18,–
"C[C@H](Nc1nc(N)nc(N)c1C#N)c1nc2c(Cl)ccc(Cl)c2c(=O)n1-c1c[nH]cn1 [Compound 286, (S)-2,4-diamino-6-((1-(5,8-dichloro-3-(1H-imidazol-4-yl)-4-oxo-3,4-dihydroquinazolin-2-yl)ethyl)amino)pyrimidine-5-carbonitrile]",–,–,–,230,0.3,0.8,–
"CC[C@H](Nc1ncnc2sccc12)c1nc2c(Cl)ccc(Cl)c2c(=O)n1-c1cn[nH]c1 [Compound 56, (S)-5,8-dichloro-3-(1H-pyrazol-4-yl)-2-(1-(thieno[2,3-d]pyrimidin-4-ylamino)propyl)quinazolin-4(3H)-one]",–,88,1300,–,–,–,> 10000
"CC[C@H](Nc1nc(N)nc(N)c1C#N)c1nc2c(C)cccc2c(=O)n1-c1cc[nH]n1 [Compound 34, (S)-2,4-diamino-6-((1-(8-methyl-4-oxo-3-(1H-pyrazol-3-yl)-3,4-dihydroquinazolin-2-yl)propyl)amino)pyrimidine-5-carbonitrile]",6100,8,7,–,–,–,–
"Nc1nc(N)c(Cl)c(N[C@H](c2nc3c(Cl)ccc(F)c3c(=O)n2-c2cc[nH]n2)C2CC2)n1 [Compound 148, (S)-8-chloro-2-(cyclopropyl((2,6-diamino-5-chloropyrimidin-4-yl)amino)methyl)-5-fluoro-3-(1H-pyrazol-3-yl)quinazolin-4(3H)-one]",–,–,–,> 10000,44,52,–
"CC[C@H](Nc1ncnc2scnc12)c1nc2c(Cl)ccc(Cl)c2c(=O)n1-c1n[nH]cc1Br [Compound 86, (S)-3-(4-bromo-1H-pyrazol-3-yl)-5,8-dichloro-2-(1-(thiazolo[5,4-d]pyrimidin-7-ylamino)propyl)quinazolin-4(3H)-one]",–,19,340,–,–,–,> 10000
"C[C@H](NC(=O)c1c(N)nn2cccnc12)c1nc2cccc(Cl)c2c(=O)n1-c1cc[nH]n1 [Compound 117, (S)-2-amino-N-(1-(5-chloro-4-oxo-3-(1H-pyrazol-3-yl)-3,4-dihydroquinazolin-2-yl)ethyl)pyrazolo[1,5-a]pyrimidine-3-carboxamide]",160,110,37,–,–,–,–
"CC[C@H](Nc1nc(N)nc(N)c1C#N)c1nc2cccc(Br)c2c(=O)n1-c1cc[nH]n1 [Compound 98, (S)-2,4-diamino-6-((1-(5-bromo-4-oxo-3-(1H-pyrazol-3-yl)-3,4-dihydroquinazolin-2-yl)propyl)amino)pyrimidine-5-carbonitrile]",110,0.6,0.3,–,–,–,–

# Source: patent publication US10308639B2, “Phosphatidylinositol 3-kinase inhibitors” (Gilead Sciences, Inc., priority 2014, dated 2019)
